# System: AKT
# Test: Western blot of AKT protein levels and downstream signaling in BT474 cells
# Format: cell-based, human
# Settings: Western blot (FIGS. 1, 3, 4)
# Method: PC-3, U87MG, HCC1143, MDA-MB-231, MDA-MB-468, BT474 and MCF-7 cell lines were purchased from ATCC. Cell lines were regularly tested in the lab for mycoplasma. All cells were cultured at 37° C. and 5% CO2. PC-3, U87MG, MDA-MB-231, MCF-7 and BT474 cells were cultured in 1×DMEM (Corning, 10-013-CV) with 10% fetal bovine serum (Atlanta Biologicals S11150) and 1× Penicillin/Streptomycin. HCC1143 cells were cultured in RPMI (Corning, 10-040-CV) medium with 10% fetal bovine serum (Atlanta Biologicals S11150) and 1× Penicillin/Streptomycin. Cells were split using 0.05% or 0.25% trypsin (Corning 25-051-Cl or 25-053-Cl, respectively) before they reached full confluence and media was changed every 3-4 days. Cells were treated with compounds individually at different concentrations for 24 hrs. Cells were treated with DMSO, VHL, or PML alone as controls.
# Cells were lysed in 2× sample buffer (125 mM Tris-HCl at pH 6.8, 10% βME, 2% SDS, 20% glycerol, 0.05% Bromophenol Blue, 8 M urea). Protein lysates were loaded into 4-12% Bis-Tris gels and resolved by electrophoresis. Samples were then blotted on PVDF membrane (Millipore IPVH00010) using the wet transfer technique (Invitrogen). Membranes were blocked in 5% milk-TBST for 1 hour, washed in TBST for 10 min, and incubated in primary antibody in 5% milk-TBST or 5% BSA-TBST at 4° C. for 16 h. Membranes were rinsed (3×6 min) in TBST and incubated in horseradish peroxidase-conjugated secondary antibodies in 5% milk-TBST for 1 hour and rinsed again in TBST (3×6 min). Membranes were visualized using the chemiluminescence system (Thermo 34080, 37075) on autoradiography film (Denville E3018). Primary Antibodies: R-actin (Sigma A5316), p-AKT (Ser473 CST-9721), total AKT (CST-9272), p-S6 (Ser240/244, CST-5364), p-PRAS40 (Thr246, CST-2997). Secondary Antibodies: Mouse (Thermo 31432), Rabbit (Thermo 31460).
row,SMILES,suppression of AKT protein level and AKT activity
1,"C[C@@H]1C[C@@H](O)c2ncnc(N3CCN(C(=O)[C@H](CNCCC(=O)NCCOCCOCCOCCOCCOCCNc4cccc5c4C(=O)N(C4CCC(=O)NC4=O)C5=O)c4ccc(Cl)cc4)CC3)c21 (stereo partly drawn) [XF038-177A, 3-(((S)-2-(4-chlorophenyl)-3-(4-((5R,7R)-7-hydroxy-5-methyl-6,7-dihydro-5H-cyclopenta[d]pyrimidin-4-yl)piperazin-1-yl)-3-oxopropyl)amino)-N-(17-((2-(2,6-dioxopiperidin-3-yl)-1,3-dioxoisoindolin-4-yl)amino)-3,6,9,12,15-pentaoxaheptadecyl) propanamide]",effective in suppressing both AKT protein level and AKT activity
2,"Cc1ncsc1-c1ccc(CNC(=O)[C@@H]2C[C@@H](O)CN2C(=O)[C@@H](NC(=O)CCCCC(=O)N2CCN(CC[C@H](NC(=O)C3(N)CCN(c4ncnc5[nH]ccc45)CC3)c3ccc(Cl)cc3)CC2)C(C)(C)C)cc1 [XF050-16, 4-amino-N-((S)-1-(4-chlorophenyl)-3-(4-(6-(((S)-1-((2S,4R)-4-hydroxy-2-((4-(4-methylthiazol-5-yl)benzyl)carbamoyl)pyrrolidin-1-yl)-3,3-dimethyl-1-oxobutan-2-yl)amino)-6-oxohexanoyl)piperazin-1-yl)propyl)-1-(7H-pyrrolo[2,3-d]pyrimidin-4-yl)piperidine-4-carboxamide]",effective in suppressing both AKT protein level and AKT activity
3,"NC1(C(=O)N[C@@H](CCN2CCN(C(=O)CCOCCOCCOCCOCCOCCOCCOCCOCCNc3cccc4c3C(=O)N(C3CCC(=O)NC3=O)C4=O)CC2)c2ccc(Cl)cc2)CCN(c2ncnc3[nH]ccc23)CC1 (stereo partly drawn) [XF056-34, 4-amino-N-((1S)-1-(4-chlorophenyl)-3-(4-(1-((2-(2,6-dioxopiperidin-3-yl)-1,3-dioxoisoindolin-4-yl)amino)-3,6,9,12,15,18,21,24-octaoxaheptacosan-27-oyl)piperazin-1-yl)propyl)-1-(7H-pyrrolo[2,3-d]pyrimidin-4-yl)piperidine-4-carboxamide]",effective in suppressing both AKT protein level and AKT activity
4,"NC1(C(=O)N[C@@H](CCN2CCN(C(=O)CCOCCOCCOCCNc3cccc4c3C(=O)N(C3CCC(=O)NC3=O)C4=O)CC2)c2ccc(Cl)cc2)CCN(c2ncnc3[nH]ccc23)CC1 (stereo partly drawn) [XF050-31, 4-amino-N-((1S)-1-(4-chlorophenyl)-3-(4-(3-(2-(2-(2-((2-(2,6-dioxopiperidin-3-yl)-1,3-dioxoisoindolin-4-yl)amino)ethoxy)ethoxy)ethoxy)propanoyl)piperazin-1-yl)propyl)-1-(7H-pyrrolo[2,3-d]pyrimidin-4-yl)piperidine-4-carboxamide]",effective in suppressing both AKT protein level and AKT activity
5,"NC1(C(=O)N[C@@H](CCN2CCN(C(=O)CCOCCOCCOCCOCCOCCOCCNc3cccc4c3C(=O)N(C3CCC(=O)NC3=O)C4=O)CC2)c2ccc(Cl)cc2)CCN(c2ncnc3[nH]ccc23)CC1 (stereo partly drawn) [XF056-33, 4-amino-N-((1S)-1-(4-chlorophenyl)-3-(4-(1-((2-(2,6-dioxopiperidin-3-yl)-1,3-dioxoisoindolin-4-yl)amino)-3,6,9,12,15,18-hexaoxahenicosan-21-oyl)piperazin-1-yl)propyl)-1-(7H-pyrrolo[2,3-d]pyrimidin-4-yl)piperidine-4-carboxamide]",effective in suppressing both AKT protein level and AKT activity
6,"Cc1ncsc1-c1ccc(CNC(=O)[C@@H]2C[C@@H](O)CN2C(=O)[C@@H](NC(=O)CCCCCCCC(=O)N2CCN(CC[C@H](NC(=O)C3(N)CCN(c4ncnc5[nH]ccc45)CC3)c3ccc(Cl)cc3)CC2)C(C)(C)C)cc1 [XF050-19, 4-amino-N-((S)-1-(4-chlorophenyl)-3-(4-(9-(((S)-1-((2S,4R)-4-hydroxy-2-((4-(4-methylthiazol-5-yl)benzyl)carbamoyl)pyrrolidin-1-yl)-3,3-dimethyl-1-oxobutan-2-yl)amino)-9-oxononanoyl)piperazin-1-yl)propyl)-1-(7H-pyrrolo[2,3-d]pyrimidin-4-yl)piperidine-4-carboxamide]",effective in suppressing both AKT protein level and AKT activity
7,"NC1(C(=O)N[C@@H](CCN2CCN(C(=O)CCOCCOCCOCCOCCOCCOc3cccc4c3C(=O)N(C3CCC(=O)NC3=O)C4=O)CC2)c2ccc(Cl)cc2)CCN(c2ncnc3[nH]ccc23)CC1 (stereo partly drawn) [XF056-37, 4-amino-N-((1S)-1-(4-chlorophenyl)-3-(4-(1-((2-(2,6-dioxopiperidin-3-yl)-1,3-dioxoisoindolin-4-yl)oxy)-3,6,9,12,15-pentaoxaoctadecan-18-oyl)piperazin-1-yl)propyl)-1-(7H-pyrrolo[2,3-d]pyrimidin-4-yl)piperidine-4-carboxamide]",effective in suppressing both AKT protein level and AKT activity
8,"Cc1ncsc1-c1ccc(CNC(=O)[C@@H]2C[C@@H](O)CN2C(=O)[C@@H](NC(=O)CCCCCCC(=O)N2CCN(CC[C@H](NC(=O)C3(N)CCN(c4ncnc5[nH]ccc45)CC3)c3ccc(Cl)cc3)CC2)C(C)(C)C)cc1 [XF050-18, 4-amino-N-((S)-1-(4-chlorophenyl)-3-(4-(8-(((S)-1-((2S,4R)-4-hydroxy-2-((4-(4-methylthiazol-5-yl)benzyl)carbamoyl)pyrrolidin-1-yl)-3,3-dimethyl-1-oxobutan-2-yl)amino)-8-oxooctanoyl)piperazin-1-yl)propyl)-1-(7H-pyrrolo[2,3-d]pyrimidin-4-yl)piperidine-4-carboxamide]",effective in suppressing both AKT protein level and AKT activity
9,"C[C@@H]1C[C@@H](O)c2ncnc(N3CCN(C(=O)[C@H](CNCCC(=O)NCCCCCCCCOc4cccc5c4C(=O)N(C4CCC(=O)NC4=O)C5=O)c4ccc(Cl)cc4)CC3)c21 (stereo partly drawn) [XF050-133, 3-(((S)-2-(4-chlorophenyl)-3-(4-((5R,7R)-7-hydroxy-5-methyl-6,7-dihydro-5H-cyclopenta[d]pyrimidin-4-yl)piperazin-1-yl)-3-oxopropyl)amino)-N-(8-((2-(2,6-dioxopiperidin-3-yl)-1,3-dioxoisoindolin-4-yl)oxy)octyl)propanamide]",effective in suppressing both AKT protein level and AKT activity
10,"C[C@@H]1C[C@@H](O)c2ncnc(N3CCN(C(=O)[C@H](CNCCNC(=O)CCOCCOCCOCCNc4cccc5c4C(=O)N(C4CCC(=O)NC4=O)C5=O)c4ccc(Cl)cc4)CC3)c21 (stereo partly drawn) [XF048-2, N-(2-(((S)-2-(4-chlorophenyl)-3-(4-((5R,7R)-7-hydroxy-5-methyl-6,7-dihydro-5H-cyclopenta[d]pyrimidin-4-yl)piperazin-1-yl)-3-oxopropyl)amino)ethyl)-3-(2-(2-(2-((2-(2,6-dioxopiperidin-3-yl)-1,3-dioxoisoindolin-4-yl)amino)ethoxy)ethoxy)ethoxy)propanamide]",effective in suppressing both AKT protein level and AKT activity
11,"NC1(C(=O)N[C@@H](CCN2CCN(C(=O)CCOCCOCCNc3cccc4c3C(=O)N(C3CCC(=O)NC3=O)C4=O)CC2)c2ccc(Cl)cc2)CCN(c2ncnc3[nH]ccc23)CC1 (stereo partly drawn) [XF050-30, 4-amino-N-((1S)-1-(4-chlorophenyl)-3-(4-(3-(2-(2-((2-(2,6-dioxopiperidin-3-yl)-1,3-dioxoisoindolin-4-yl)amino)ethoxy)ethoxy)propanoyl)piperazin-1-yl)propyl)-1-(7H-pyrrolo[2,3-d]pyrimidin-4-yl)piperidine-4-carboxamide]",effective in suppressing both AKT protein level and AKT activity
